Measurements reported in article PMC12133982, “Predominant T-cell epitopes of SARS-CoV-2 restricted by multiple prevalent HLA-B and HLA-C allotypes in Northeast Asia” (Frontiers in Immunology, 2025).
Peptide text beside a SMILES is read from it.

Key:
HLA-C0102 = HLA-C0102 (Homo sapiens, UniProt P10321, A176E/A330V/A35S/A97T/C350S/D114A/D33F/L171W/L180R/L218V/M285V/M309V/M331V/P208H/Q277E/Q291P/R121W/R243W/R30K/S123C/S140Y/S297R/T329A/T363A/V272M/V319A); experiment: Competitive peptide binding assay, CIR-C0102; conditions: for IC50: HMy2.CIR-C0102 cells, reference Cy5-[…], class from inhibition at 5 and 15 μM, flow cytometry MFI, read-out: Binding affinity with HLA-C0102
Experimental: (§1) Then, competitive peptide binding assays were performed.

HLA-C1402 = HLA-C1402 (Homo sapiens, UniProt P10321, A176E/A330V/A35S/A97T/C350S/D114A/D33S/L171W/L180R/L218V/M285V/M309V/M331V/P208H/Q277E/Q291P/R121W/R243W/S123F/S297R/S48A/T329A/T363A/V319A); experiment: Competitive peptide binding assay, CIR-C1402; conditions: HMy2.CIR-C1402 cells, reference Cy5-[…], class from inhibition at 5 and 15 μM, flow cytometry MFI; read-out: Binding affinity with HLA-C1402
Experimental: as §1

HLA-C0302 = HLA-C0302 (Homo sapiens, UniProt P10321, A176E/A330V/A97T/C25G/C350S/D114A/D33Y/E197K/L127V/L171W/L218V/M285V/M309V/M331V/P208H/Q277E/Q291P/R243W/R45H/S123Y/S297R/S48A/T118I/T187L/T329A/T363A/V319A); experiment: Competitive peptide binding assay, CIR-C0302; conditions: HMy2.CIR-C0302 cells, reference Cy5-[…], class from inhibition at 5 and 15 μM, flow cytometry MFI; read-out: Binding affinity with HLA-C0302
Experimental: as §1

HLA-C0401 = HLA-C0401 (Homo sapiens, UniProt P10321, A176E/A330V/A35S/A73E/C25G/C350S/D138N/D33S/E299K/L171W/L180R/L218V/M285V/M309V/M331V/N104K/P208H/Q277E/Q291P/R243W/R38W/S101N/S123F/S140F/S297R/S48A/T329A/T363A/V319A/V327M); experiment: Competitive peptide binding assay, CIR-C0401; conditions: HMy2.CIR-C0401 cells, reference Cy5-[…], class from inhibition at 5 and 15 μM, flow cytometry MFI; read-out: Binding affinity with HLA-C0401
Experimental: as §1

HLA-C0602 = HLA-C0602 (Homo sapiens, UniProt P10321, A176E/A330V/C350S/L171W/L180W/L218V/M285V/M309V/M331V/N104K/P208H/Q277E/Q291P/R121W/S101N/S123Y/S297R/T329A/T363A/V319A/V328M); experiment: Competitive peptide binding assay, CIR-C0602
HLA-C0702 = HLA-C0702 (Homo sapiens, UniProt P10321); experiment: Competitive peptide binding assay, CIR-C0702
HLA-B3501 = HLA-B3501 (Homo sapiens, UniProt P01889, A329T/A93T/A95T/C349S/D201E/D98Y/E176V/E187L/E204Q/E69T/I218V/K202T/L119I/Q94N/R155S/R180L/S121R/S35A/S48A/T118I/V127L/V306I/V36M/Y140S/Y91F); experiment: Competitive peptide binding assay, CIR-B3501; conditions: HMy2.CIR-B3501 cells, reference Cy5-[…], class from inhibition at 5 and 15 μM, flow cytometry MFI; read-out: Binding affinity with HLA-B3501
Experimental: as §1

HLA-B4001 = HLA-B4001 (Homo sapiens, UniProt P01889, A65T/A93T/A95T/D138N/D98Y/E176V/E69K/N87E/Q56L/Q94N/R180L/S121R/S35A/S48T/T167S/V36M/W171L/Y33H/Y91S); experiment: Competitive peptide binding assay, CIR-B4001; conditions: HMy2.CIR-B4001 cells, reference Cy5-[…], class from inhibition at 5 and 15 μM, flow cytometry MFI; read-out: Binding affinity with HLA-B4001
Experimental: as §1

HLA-B4601 = HLA-B4601 (Homo sapiens, UniProt P01889, A329T/A93R/C349S/D201E/E100V/E187L/E204Q/E69M/E70A/I90K/K202T/N87E/R155S/R180W/S121R/S35A/S48A/V306I/V36M/Y140S); experiment: Competitive peptide binding assay, CIR-B4601; conditions: for IC50: HMy2.CIR-B4601 cells, reference Cy5-[…], class from inhibition at 5 and 15 μM, flow cytometry MFI, read-out: Binding affinity with HLA-B4601; for inhibition at 5 µM: read-out: Inhibition % of Cy5-reference peptide binding, CIR-B4601, 5μM peptide; for inhibition at 15 µM: read-out: Inhibition % of Cy5-reference peptide binding, CIR-B4601, 15μM peptide
Experimental: as §1

HLA-B1501 = HLA-B1501 (Homo sapiens, UniProt P01889, A329T/A93T/A95T/C349S/D201E/D98Y/E187L/E204Q/E69M/E70A/K202T/N87E/Q94N/R155S/R180W/S121R/S35A/S48A/V306I/V36M/Y140S/Y91S); experiment: Competitive peptide binding assay, CIR-B1501; conditions: HMy2.CIR-B1501 cells, reference Cy5-[…], class from inhibition at 5 and 15 μM, flow cytometry MFI; read-out: Binding affinity with HLA-B1501
Experimental: as §1

HLA-B1502 = HLA-B1502 (Homo sapiens, UniProt P01889, A329T/A93T/A95T/C349S/D201E/D98Y/E187L/E204Q/E69M/E70A/H137Y/K202T/L119I/Q94N/R155S/R180L/S121R/S35A/S48A/T118I/V306I/V36M/Y140S/Y91S); experiment: Competitive peptide binding assay, CIR-B1502; conditions: HMy2.CIR-B1502 cells, reference Cy5-[…], class from inhibition at 5 and 15 μM, flow cytometry MFI; read-out: Binding affinity with HLA-B1502
Experimental: as §1

HLA-B5801 = HLA-B5801 (Homo sapiens, UniProt P01889, A329T/C349S/D201E/D98Y/E176V/E187L/E204Q/E69T/G107R/I218V/I90N/K202T/L105A/L119I/N104I/N87E/Q89R/Q94S/R106L/R155S/R180L/R86G/S101N/S121R/S35A/S48A/T118I/V127L/V306I/V36M/Y140S/Y91M); experiment: Competitive peptide binding assay, CIR-B5801; conditions: HMy2.CIR-B5801 cells, reference Cy5-[…], class from inhibition at 5 and 15 μM, flow cytometry MFI; read-out: Binding affinity with HLA-B5801
Experimental: as §1

HLA-B1301 = HLA-B1301 (Homo sapiens, UniProt P01889, A65T/A93T/A95T/D138N/D201E/D98Y/E176V/E204Q/E69M/E70A/G107R/K202T/L105A/L119I/N104T/N87E/Q94N/R106L/R155S/R169L/R180L/S101N/S121R/S35A/S48T/T118I/V127L/V36M/Y140L/Y91S); experiment: Competitive peptide binding assay, CIR-B1301; conditions: HMy2.CIR-B1301 cells, reference Cy5-[…], class from inhibition at 5 and 15 μM, flow cytometry MFI; read-out: Binding affinity with HLA-B1301
Experimental: as §1

HLA-B1302 = HLA-B1302 (Homo sapiens, UniProt P01889, A65T/A93T/A95T/D138N/D201E/D98Y/E176V/E204Q/E69M/E70A/G107R/K202T/L105A/L119W/N104T/N87E/Q94N/R106L/R155S/R169L/R180L/S101N/S121T/S35A/S48T/V127L/V36M/Y140L/Y91S); experiment: Competitive peptide binding assay, CIR-B1302; conditions: HMy2.CIR-B1302 cells, reference Cy5-MMWYWGPSL, class from inhibition at 5 and 15 μM, flow cytometry MFI; read-out: Binding affinity with HLA-B1302
Experimental: as §1

[1] = read-out: Inhibition % of Cy5-reference peptide binding

| Compound | IC50 (HLA-C0102) [µM] | IC50 (HLA-C1402) [µM] | IC50 (HLA-C0602) [µM] | IC50 (HLA-C0702) [µM] | IC50 (HLA-B3501) [µM] | IC50 (HLA-B4001) [µM] | IC50 (HLA-B4601) [µM] | IC50 (HLA-B1501) [µM] | IC50 (HLA-B5801) [µM] | IC50 (HLA-B1301) [µM] | also measured |
| --- | --- | --- | --- | --- | --- | --- | --- | --- | --- | --- | --- |
| CC[C@H](C)[C@H](NC(=O)[C@@H](NC(=O)[C@@H](N)CO)[C@@H](C)CC)C(=O)N[C@@H](C)C(=O)N[C@@H](Cc1ccc(O)cc1)C(=O)N[C@H](C(=O)N[C@@H](CCSC)C(=O)N[C@@H](CO)C(=O)N[C@@H](CC(C)C)C(=O)O)[C@@H](C)O [Epitope M86] (H-SIIAYTMSL-OH; N-terminus and C-terminus assumed) | 5 to 15 | > 15 |  |  |  |  |  |  |  |  | IC50 (HLA-C0302): > 15 µM; IC50 (HLA-C0401): 5 to 15 µM |
| CC[C@H](C)[C@H](NC(=O)[C@@H]1CCCN1C(=O)[C@H](CCSC)NC(=O)[C@H](CC(C)C)NC(=O)[C@H](CC(C)C)NC(=O)[C@H](CO)NC(=O)[C@H](Cc1ccc(O)cc1)NC(=O)[C@@H](N)Cc1ccc(O)cc1)C(=O)N[C@@H](CC(C)C)C(=O)O [Epitope M95] | 5 to 15 | 5 to 15 | > 15 | > 15 |  |  |  |  |  |  |  |
| CC[C@H](C)[C@H](NC(=O)[C@H](CC(N)=O)NC(=O)[C@H](CC(=O)O)NC(=O)[C@H](CO)NC(=O)[C@H](CO)NC(=O)[C@@H](N)CO)C(=O)N[C@@H](C)C(=O)N[C@@H](CC(C)C)C(=O)N[C@@H](CC(C)C)C(=O)O [Epitope M111] (H-SSSDNIALL-OH; N-terminus and C-terminus assumed) | > 15 | > 15 | 5 to 15 | > 15 |  |  |  |  |  |  | inhibition at 5 µM (HLA-C0102; [1]): 30.9%; inhibition at 15 µM (HLA-C0102; [1]): 47.1%; IC50 (HLA-C0401): < 5 µM |
| CC[C@H](C)[C@H](NC(=O)[C@H](C)NC(=O)[C@H](C)NC(=O)[C@H](CC(N)=O)NC(=O)[C@H](CC(N)=O)NC(=O)[C@H](C)NC(=O)[C@@H]1CCCN1C(=O)[C@H](CC(N)=O)NC(=O)[C@H](CCCNC(=N)N)NC(=O)[C@@H](N)[C@@H](C)O)C(=O)O [Epitope M117] (H-TRNPANNAAI-OH; N-terminus and C-terminus assumed) | > 15 | > 15 | < 5 | < 5 |  |  |  |  |  |  | inhibition at 5 µM (HLA-C0102; [1]): 21% |
| C[C@H](NC(=O)CNC(=O)[C@H](C)NC(=O)[C@@H](NC(=O)[C@@H](N)Cc1c[nH]c2ccccc12)[C@@H](C)O)C(=O)N[C@@H](C)C(=O)N[C@@H](C)C(=O)N[C@@H](Cc1ccc(O)cc1)C(=O)N[C@@H](Cc1ccc(O)cc1)C(=O)O [Epitope Y174] (H-WTAGAAAYY-OH; N-terminus and C-terminus assumed) |  |  |  |  | > 15 | > 15 | > 15 | 5 to 15 | > 15 |  | IC50 (HLA-B1502): < 5 µM |
| CC[C@H](C)[C@H](NC(=O)[C@@H](NC(=O)[C@H](CC(C)C)NC(=O)[C@H](CC(N)=O)NC(=O)[C@H](Cc1c[nH]c2ccccc12)NC(=O)[C@H](CCC(N)=O)NC(=O)[C@H](CCC(=O)O)NC(=O)[C@@H](N)CC(C)C)C(C)C)C(=O)NCC(=O)O [Epitope Y215] (H-LEQWNLVIG-OH; N-terminus and C-terminus assumed) |  |  |  |  | > 15 | 5 to 15 | 5 to 15 |  | > 15 | 5 to 15 | inhibition at 5 µM (HLA-B4601): 47.2%; inhibition at 15 µM (HLA-B4601): 87.3% |
| CC[C@H](C)[C@H](NC(=O)[C@@H](NC(=O)CNC(=O)[C@H](CC(N)=O)NC(=O)[C@H](CO)NC(=O)[C@H](CC(=O)O)NC(=O)[C@H](C)N)[C@@H](C)O)C(=O)N[C@H](C(=O)N[C@H](C(=O)O)C(C)C)[C@@H](C)O [Epitope Y216] (H-ADSNGTITV-OH; N-terminus and C-terminus assumed) |  |  |  |  | > 15 | 5 to 15 | > 15 |  | 5 to 15 | > 15 | IC50 (HLA-B1302): > 15 µM |
| CC(C)C[C@H](NC(=O)[C@H](CC(C)C)NC(=O)[C@H](CC(C)C)NC(=O)[C@H](CC(N)=O)NC(=O)[C@H](CO)NC(=O)[C@H](CS)NC(=O)[C@H](CCC(=O)O)NC(=O)[C@@H](N)[C@@H](C)O)C(=O)N[C@@H](CCC(N)=O)C(=O)N[C@@H](Cc1ccc(O)cc1)C(=O)O [Epitope Y231] (H-TECSNLLLQY-OH; N-terminus and C-terminus assumed) |  |  |  |  |  | > 15 | < 5 | > 15 |  | 5 to 15 | inhibition at 5 µM (HLA-B4601): 73.8%; inhibition at 15 µM (HLA-B4601): 89.3%; IC50 (HLA-B1302): > 15 µM; IC50 (HLA-B1502): > 15 µM |
| CC[C@H](C)[C@H](NC(=O)[C@H](CC(N)=O)NC(=O)[C@@H](NC(=O)[C@H](CCC(=O)O)NC(=O)[C@@H]1CCCN1C(=O)[C@H](CC(N)=O)NC(=O)[C@H](Cc1ccccc1)NC(=O)[C@H](CO)NC(=O)[C@@H](N)Cc1c[nH]c2ccccc12)[C@@H](C)O)C(=O)O [Epitope Y297] (H-WSFNPETNI-OH; N-terminus and C-terminus assumed) |  |  |  |  |  | > 15 |  | < 5 |  | > 15 |  |
